The values that follow come from patent publication US20240132464A1, “HETEROCYCLIC COMPOUNDS AS E3 LIGASE INHIBITORS” (Accutar Biotechnology Inc., priority 2022, published 2024).

This test concerns the target T1, GID4 (Uniprot ID: Q81VV7, residues 124-289) (Homo sapiens, UniProt Q8IVV7).
T1 construct: GID4 (Uniprot ID: Q81VV7, residues 124-289)
T1 sequence (Q8IVV7 124-289): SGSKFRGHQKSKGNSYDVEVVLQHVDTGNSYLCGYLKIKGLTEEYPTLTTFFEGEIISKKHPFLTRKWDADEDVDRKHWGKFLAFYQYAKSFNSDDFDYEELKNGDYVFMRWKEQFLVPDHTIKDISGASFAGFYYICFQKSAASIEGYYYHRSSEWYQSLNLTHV
Briefly: GID4 competitive binding assay (AlphaScreen, GID4/degron peptide PGLW). The settings on record: 24 nM GID4, 48 nM biotinylated degron peptide PGLW, 4° C., read-out: IC50 (Inhibition of GID4/Degron binding by test compounds). As to the method: GID4 Competitive Binding Assay
GID4 binding affinity of compounds disclosed herein was measured by monitoring the interaction of GID4 with its degron peptide (PGLW) in the presence of the test compounds. A truncated version of GID4 (Uniprot ID: Q81VV7, residues 124-289) with a 6*His at its C-terminus was used in this assay. Tetrapeptide, PGLW, was synthesized and tagged with an additional lysine labeled with biotin at its sidechain.
GID4 competitive binding assays were performed in a 384-well plate at 4° C. in a 20 μL reaction volume. Briefly, 24 nM GID4 (final concentration) proteins were pre-incubated with 48 nM biotinylated degron peptide (final concentration) in an assay buffer containing 20 mM HEPES, pH 7.5, 100 mM NaCl, 1 mM DTT, 0.1% Tween-20, and 0.05% BSA in the presence of the test compound in 2% DMSO (final concentration) at various concentrations for 2 h. 5 ug/ml Streptavidin ALphaScreen donor beads and 5 ug/ml nickel chelate (Ni-NTA) ALphaScreen acceptor beads (PerkinElmer, 6760619C) (final concentrations) were then added to the mixture. After an incubation of 1 h at 4° C., the fluorescent signals were obtained on the EnVision® 2105 Multilabel Plate Reader (PerkinElmer).
Raw ALphaScreen data were converted to a percentage of inhibition (relative to DMSO) using the following equations: […]
For a given test compound concentration X:
Signal (X)=Signal (GID4 & peptide & compound)−Signal (GID4 & buffer & compound)
Percentage of inhibition at concentration X=[1−Signal(X)/Signal (DMSO)]*100% b)
The IC50 values were determined by nonlinear regression of plots of [inhibitor] vs. percentage of inhibition with variable slope.
Table 3 summarizes the inhibition of binding between GID4 and degron peptide with compounds of the present disclosure. Compounds were ranked into bins as follows for IC50: A indicates <500 nM; B indicates 500 nM-5000 nM; C indicates >5000 nM.
Background: Alpha assays give light when donor and acceptor beads are brought close together.
Take `Cc1c(-c2ccc(Br)c([C@H]3CN(c4cc(N)nc(N)n4)CCN3)c2)cnn1C` (racemic) [Compound 5, (S/R)-6-(3-(2-bromo-5-(1,5-dimethyl-1H-pyrazol-4-yl)phenyl)piperazin-1-yl)pyrimidine-2,4-diamine]: the IC50 is under 500 nM. The result for `Nc1cc(N2CCN[C@@H](c3cc(C(F)(F)F)ccc3Br)C2)nc(N)n1` (racemic) [Compound 12, (S/R)-6-(3-(2-bromo-5-(trifluoromethyl)phenyl)piperazin-1-yl)pyrimidine-2,4-diamine] reads under 500 nM. Then `CC(C)c1cc(N2CCN[C@@H](c3cc(C(F)(F)F)ccc3Br)C2)nc(N)n1` (racemic) [Compound 14, (S/R)-4-(3-(2-bromo-5-(trifluoromethyl)phenyl)piperazin-1-yl)-6-isopropylpyrimidin-2-amine], with 500 to 5000 nM; and `CN1CCN(C(=O)c2ccc(Br)c([C@H]3CN(c4cc(N)nc(N)n4)CCN3)c2)CC1` (racemic) [Compound 16, (S/R)-(4-bromo-3-(4-(2,6-diaminopyrimidin-4-yl)piperazin-2-yl)phenyl)(4-methylpiperazin-1-yl)methanone], with 500 to 5000 nM. Take `CC(C)c1cc(N2CCNC(c3cc(C(=O)NCCN(C)C)ccc3Br)C2)nc(N)n1` (racemic) [Compound 21, R or S-3-(4-(2-amino-6-isopropylpyrimidin-4-yl)piperazin-2-yl)-4-bromo-N-(2-(dimethylamino)ethyl)benzamide]: the IC50 is under 500 nM. Then `Brc1ccccc1[C@H]1CN(c2ccnc3[nH]cnc23)CCN1` (racemic) [Compound 34, (S/R)-7-(3-(2-bromophenyl)piperazin-1-yl)-3H-imidazo[4,5-b]pyridine], with over 5000 nM; and `Nc1nc(N2CCO[C@@H](c3ccccc3Br)C2)c2cc[nH]c2n1` (racemic) [Compound 40, (S/R)-4-(2-(2-bromophenyl)morpholino)-7H-pyrrolo[2,3-d]pyrimidin-2-amine], with 500 to 5000 nM.

With `Nc1nc(N2CCN[C@@H](c3ccccc3Br)C2)c2[nH]ccc2n1` (racemic) [Compound 43, (S/R)-4-(3-(2-bromophenyl)piperazin-1-yl)-5H-pyrrolo[3,2-d]pyrimidin-2-amine], the IC50 was in the range of 500 to 5000 nM. For `Nc1nc(NC2CC2)cc(N2CCN(CCO)[C@@H](c3ccccc3Br)C2)n1` (racemic) [Compound 45, (S/R)-2-(4-(2-amino-6-(cyclopropylamino)pyrimidin-4-yl)-2-(2-bromophenyl)piperazin-1-yl)ethan-1-ol], the IC50 is under 500 nM. The result for `Nc1nc(N2CCO[C@@H](c3ccccc3Br)C2)c2[nH]ccc2n1` (racemic) [Compound 47, (S/R)-4-(2-(2-bromophenyl)morpholino)-5H-pyrrolo[3,2-d]pyrimidin-2-amine] reads 500 to 5000 nM; that for `Nc1nc(N2CCN[C@@H](c3ccccc3Br)C2)c2cc[nH]c2n1` (racemic) [Compound 57, (S/R)-4-(3-(2-bromophenyl)piperazin-1-yl)-7H-pyrrolo[2,3-d]pyrimidin-2-amine], 500 to 5000 nM. Regarding `CC(C)c1nc(N)cc(N2CCO[C@@H](c3ccccc3Br)C2)n1` (racemic) [Compound 72, (S/R)-6-(2-(2-bromophenyl)morpholino)-2-isopropylpyrimidin-4-amine], the IC50 is under 500 nM. The result for `CC(C)c1nc(N)cc(N2CCN[C@@H](c3ccccc3Br)C2)n1` (racemic) [Compound 75, (S/R)-6-(3-(2-bromophenyl)piperazin-1-yl)-2-isopropylpyrimidin-4-amine] reads 500 to 5000 nM; that for `Nc1nc(NC2CC2)cc(N2CCO[C@@H](c3ccccc3)C2)n1` (racemic) [Compound 95, (S/R)-N4-cyclopropyl-6-(2-phenylmorpholino)pyrimidine-2,4-diamine], over 5000 nM. Regarding `CN1CCN(c2cc(NCC3CC3)nc(N)n2)C[C@@H]1c1ccccc1Br` (racemic) [Compound 100, (S/R)-6-(3-(2-bromophenyl)-4-methylpiperazin-1-yl)-N4-(cyclopropylmethyl)pyrimidine-2,4-diamine], the IC50 is over 5000 nM.
